The experiment addresses T1, purified human IDO protein (Homo sapiens, UniProt P14902).
T1 construct: 2 extra amino acids (linker from the BglII cloning site of pQE70); made in house; host or cells: E. coli M15(pREP4) with plasmid pQE70-hIDO
The experiment is described as follows: Enzymatic IDO assay (kynurenine production, absorbance at 480 nm). The settings on record: recombinant human IDO; values reported in ranges; read-out: hIDO IC50. It is filed as biochemical. The protocol: The inhibitors were initially diluted in DMSO at 100 mM and were diluted in potassium phosphate 50 mM, added to the reaction mixture at final concentrations raging from 1 mM to 5 nM and preincubated with the enzyme for 5 min at 25° C. The reaction was started by addition of L-tryptophan to 200 μM and incubated 15 min at 37° C. The reaction was stopped by addition of 0.5 vol of 30% trichloroacetic acid and incubated 30 min at 60° C. to hydrolyze N-formylkynurenine to kynurenine. The reaction was centrifuged at 3400 g for 5 min to remove precipitated protein and the supernatant was reacted with 2% (w/v) of p-dimethylaminobenzaldehyde in acetic acid. The reaction was incubated 10 min at 25° C. and read at 480 nm in a spectrophotometer. […] Nonlinear regressions and determination of the IC50 values were performed using the GraphPad Prism 4 software.
T1 sequence (P14902 whole entry P110S/E119G): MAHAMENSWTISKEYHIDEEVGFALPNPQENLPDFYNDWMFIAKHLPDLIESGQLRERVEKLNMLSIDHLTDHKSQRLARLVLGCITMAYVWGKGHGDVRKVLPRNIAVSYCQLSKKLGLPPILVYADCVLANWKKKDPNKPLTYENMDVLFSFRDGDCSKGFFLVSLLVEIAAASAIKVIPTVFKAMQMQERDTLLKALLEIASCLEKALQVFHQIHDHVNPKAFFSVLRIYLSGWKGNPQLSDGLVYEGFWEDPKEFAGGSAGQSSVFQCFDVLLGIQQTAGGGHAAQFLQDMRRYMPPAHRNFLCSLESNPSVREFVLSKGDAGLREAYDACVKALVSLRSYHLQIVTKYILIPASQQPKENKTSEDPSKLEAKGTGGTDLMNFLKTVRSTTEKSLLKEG
Consider `N[C@@H]1CCCC[C@H]1NC(=O)Nc1ccc(CCOc2ccccc2-c2c[nH]cn2)c(Cl)c1` (racemic) [compound 1361, 1-(4-(2-(2-(1H-imidazol-4-yl)phenoxy)ethyl)-3-chlorophenyl)-3-(±(1R,2R)-2-aminocyclohexyl)urea], for which the half-inhibitory concentration (IC50) – broadly, the concentration needed to halve the response being measured – is < 1 µM.

In the case of `N[C@H]1CCCC[C@H]1NC(=O)Nc1ccc(CCOc2ccccc2-c2c[nH]cn2)c(Cl)c1` (racemic) [compound 1368, 1-(4-(2-(2-(1H-imidazol-4-yl)phenoxy)ethyl)-3-chlorophenyl)-3-(±(1R,2S)-2-aminocyclohexyl)urea], the IC50 was < 1 µM.

Turning to `O=C(O)c1ccccc1-c1c[nH]cn1` [compound 926, 2-(1H-imidazol-4-yl)benzoic acid], the concentration for half-maximal inhibition (IC50) is > 100 µM.

For the compound `COC(=O)c1ccccc1CCOc1ccccc1-c1c[nH]cn1` [compound 934, methyl 2-(2-(2-(1H-imidazol-4-yl)phenoxy)ethyl) benzoate], the half-maximal inhibitory concentration (IC50) was > 100 µM.

On to `COc1ccccc1-c1cnco1` [compound 945, 5-(2-methoxyphenyl)oxazole], for which the IC50 was > 100 µM.

For the compound `O=C(NCc1cccc(Cl)c1)C1CCC(=CCOc2ccccc2-c2c[nH]cn2)CC1` (stereo not shown) [compound 947, 4-(2-(2-(1H-imidazol-4-yl)phenoxy)ethylidene)-N-(3-chlorobenzyl)cyclohexanecarbox-amide], the IC50 fell in the range of 10 to 100 µM.

In the case of `c1cc(-c2c[nH]cn2)c2[nH]ccc2c1` [compound 948, 7-(1H-imidazol-4-yl)-1H-indole], the IC50 is 10 to 100 µM.

Take `c1nc(-c2ccc3[nH]ccc3c2)c[nH]1` [compound 949, 5-(1H-imidazol-4-yl)-1H-indole]: the half-maximal inhibitory concentration (IC50) is > 100 µM.

As to `c1cnc2c(-c3c[nH]cn3)cccc2c1` [compound 952, 8-(1H-imidazol-4-yl)quinoline], the concentration for half-maximal inhibition (IC50) is > 100 µM.

With `O=C(COc1ccccc1-c1c[nH]cn1)c1cccc(Br)c1` [compound 953, 2-(2-(1H-imidazol-4-yl)phenoxy)-1-(3-bromo-phenyl)ethanone], the IC50 was 10 to 100 µM.

For the compound `OC(COc1ccccc1-c1c[nH]cn1)c1cccc(Br)c1` (stereo not shown) [compound 954, 2-(2-(1H-imidazol-4-yl)phenoxy)-1-(3-bromo-phenyl)ethanol], the half-maximal inhibitory concentration (IC50) was 10 to 100 µM.

`c1nc(-c2ccc3c(c2)OCO3)c[nH]1` [compound 955, 4-(benzo[d][1,3]dioxol-5-yl)-1H-imidazole]: the IC50 was > 100 µM.

For the compound `Oc1c(-c2c[nH]cn2)cc(Cl)c2cccnc12` [compound 956, 5-chloro-7-(1H-imidazol-4-yl)quinolin-8-ol], the IC50 was > 100 µM.

On to `c1ccc2c(-c3cnc[nH]3)cccc2c1` [compound 957, 5-(naphthalen-1-yl)-1H-imidazole], for which the IC50 was 10 to 100 µM.

With `CC(=O)NCc1cccc(COc2ccccc2-c2c[nH]cn2)c1` [compound 958, N-(3-((2-(1H-imidazol-4-yl)phenoxy)methyl)benzyl)acetamide], the concentration for half-maximal inhibition (IC50) lay in the range of 10 to 100 µM.

`CC(=O)N(Cc1ccccc1)Cc1cccc(COc2ccccc2-c2c[nH]cn2)c1` [compound 959, N-(3-((2-(1H-imidazol-4-yl)phenoxy)methyl)benzyl)-N-benzylacetamide]: the 50% inhibitory concentration (IC50) is 10 to 100 µM.

For the compound `c1nc(-c2ccc3cc[nH]c3c2)c[nH]1` [compound 961, 6-(1H-imidazol-4-yl)-1H-indole], the IC50 is 10 to 100 µM.

As to `c1cc(-c2c[nH]cn2)c2nsnc2c1` [compound 962, 4-(1H-imidazol-4-yl)benzo[c][1,2,5]thiadiazole], the IC50 lay within 10 to 100 µM.

Consider `c1cnc2[nH]cc(-c3c[nH]cn3)c2c1` [compound 964, 3-(1H-imidazol-4-yl)-1H-pyrrolo[2,3-b]pyridine], for which the half-inhibitory concentration (IC50) is > 100 µM.

Regarding `CC(C)(C)C(=O)Oc1ccc(Br)cc1-c1c[nH]cn1` [compound 967, 4-bromo-2-(1H-imidazol-4-yl)phenyl pivalate], the concentration for half-maximal inhibition (IC50) is 1 to 10 µM.

Consider `Clc1ccc2c(-c3c[nH]cn3)ccnc2c1` [compound 969, 7-chloro-4-(1H-imidazol-4-yl)quinoline], for which the IC50 is > 100 µM.

Turning to `c1nc(-c2ccc3c(c2)OCCO3)c[nH]1` [compound 971, 4-(2,3-dihydrobenzo[b][1,4]dioxin-6-yl)-1H-imidazole], the IC50 was > 100 µM.

Consider `c1cnc(-c2c[nH]cn2)nc1` [compound 972, 2-(1H-imidazol-4-yl)pyrimidine], for which the IC50 is > 100 µM.

Consider `c1ccc2[nH]c(-c3c[nH]cn3)cc2c1` [compound 975, 2-(1H-imidazol-4-yl)-1H-indole], for which the IC50 lay within 10 to 100 µM.

Regarding `CCC(O)(COc1ccccc1-c1c[nH]cn1)c1cccs1` (stereo not shown) [compound 976, 1-(2-(1H-imidazol-4-yl)phenoxy)-2-(thiophen-2-yl)butan-2-ol], the IC50 was 10 to 100 µM.

Consider `CC(O)(COc1ccccc1-c1c[nH]cn1)c1cccs1` (stereo not shown) [compound 977, 1-(2-(1H-imidazol-4-yl)phenoxy)-2-(thiophen-2-yl)propan-2-ol], for which the IC50 is 10 to 100 µM.

For `CC(COc1ccccc1-c1c[nH]cn1)c1ccccc1` (stereo not shown) [compound 978, 4-(2-(2-phenylpropoxy)phenyl)-1H-imidazole], the IC50 lay in the range of 10 to 100 µM.

Take `O=C(O)c1ccccc1C(=O)COc1ccccc1-c1c[nH]cn1` [compound 979, 2-(2-(2-(1H-imidazol-4-yl)phenoxy)acetyl) benzoic acid]: the IC50 was > 100 µM.

As for `c1cc(-c2c[nH]cn2)ccn1` [compound 982, 4-(1H-imidazol-4-yl)pyridine], the IC50 was > 100 µM.

In the case of `c1ccc(OCc2cccc(-c3c[nH]cn3)c2)cc1` [compound 996, 4-(3-(phenoxymethyl)phenyl)-1H-imidazole], the IC50 lay within 10 to 100 µM.

Turning to `Clc1ccc(COc2ccccc2-c2c[nH]cn2)cc1Cl` [compound 1003, 4-(2-(3,4-dichlorobenzyloxy)phenyl)-1H-imidazole], the half-inhibitory concentration (IC50) was 1 to 10 µM.

Turning to `c1ccc2c(-c3c[nH]cn3)cncc2c1` [compound 1004, 4-(1H-imidazol-4-yl)isoquinoline], the IC50 was > 100 µM.

On to `Oc1ccc(-c2ccccc2)cc1-c1c[nH]cn1` [compound 1005, 3-(1H-imidazol-4-yl)biphenyl-4-ol], for which the half-maximal inhibitory concentration (IC50) was in the range of 10 to 100 µM.

Regarding `OC(c1ccccc1)c1c[nH]cn1` (stereo not shown) [compound 1006, (1H-imidazol-4-yl)(phenyl)methanol], the concentration for half-maximal inhibition (IC50) was > 100 µM.

Turning to `c1ccc2c(-c3c[nH]cn3)ccnc2c1` [compound 1007, 4-(1H-imidazol-4-yl)quinoline], the IC50 is > 100 µM.

`COc1cccc(-c2c[nH]cn2)n1` [compound 1009, 2-(1H-imidazol-4-yl)-6-methoxypyridine]: the IC50 was > 100 µM.

`Oc1cccc(OCCCc2ccccc2)c1-c1cnc[nH]1` [compound 1010, 2-(1H-imidazol-5-yl)-3-(3-phenylpropoxy) phenol]: the IC50 fell in the range of 10 to 100 µM.

For the compound `Oc1cccc(-c2c[nH]cn2)n1` [compound 1011, 6-(1H-imidazol-4-yl)pyridin-2-ol], the 50% inhibitory concentration (IC50) was > 100 µM.

As for `COc1ncccc1-c1c[nH]cn1` [compound 1012, 3-(1H-imidazol-4-yl)-2-methoxypyridine], the half-maximal inhibitory concentration (IC50) was > 100 µM.

As for `COc1cccc2c1-c1cncn1C2` [compound 1013, 9-methoxy-5H-imidazo[5,1-a]isoindole], the IC50 lay in the range of 10 to 100 µM.

With `CCOC(=O)/C=C/c1ccccc1-c1c[nH]cn1` [compound 1014, (E)-ethyl 3-(2-(1H-imidazol-4-yl)phenyl)acrylate], the concentration for half-maximal inhibition (IC50) was in the range of 10 to 100 µM.

Turning to `Oc1ncccc1-c1c[nH]cn1` [compound 1015, 3-(1H-imidazol-4-yl)pyridin-2-ol], the 50% inhibitory concentration (IC50) was > 100 µM.

`Brc1ccc(OCCC2CCCCC2)c(-c2c[nH]cn2)c1` [compound 1016, 4-(5-bromo-2-(2-cyclohexylethoxy)phenyl)-1H-imidazole]: the IC50 fell in the range of 10 to 100 µM.

Turning to `O=C(COc1ccccc1-c1c[nH]cn1)c1ccc2ccsc2c1` [compound 1018, 2-(2-(1H-imidazol-4-yl)phenoxy)-1-(benzo[b]thiophen-6-yl)ethanone], the IC50 was 1 to 10 µM.

As for `Clc1ccccc1CCOc1ccc(Br)cc1-c1c[nH]cn1` [compound 1021, 4-(5-bromo-2-(2-chlorophenethoxy)phenyl)-1H-imidazole], the IC50 was 10 to 100 µM.

Regarding `Fc1ccc(COc2ccccc2-c2c[nH]cn2)cc1` [compound 1022, 4-(2-(4-fluorobenzyloxy)phenyl)-1H-imidazole], the IC50 lay in the range of 10 to 100 µM.

`FC(F)(F)c1ccc(COc2ccccc2-c2c[nH]cn2)cc1` [compound 1023, 4-(2-(4-(trifluoromethyl)benzyloxy)phenyl)-1H-imidazole]: the IC50 was > 100 µM.

`CC(Oc1ccccc1-c1c[nH]cn1)c1ccc(Cl)cc1` (stereo not shown) [compound 1024, 4-(2-(1-(4-chlorophenyl)ethoxy)phenyl)-1H-imidazole]: the IC50 was 10 to 100 µM.

As to `c1ccc2oc(-c3c[nH]cn3)cc2c1` [compound 1026, 4-(benzofuran-2-yl)-1H-imidazole], the IC50 was > 100 µM.

`c1ccc(-c2c[nH]cn2)c(OCc2ccc3c(c2)OCO3)c1` [compound 1027, 4-(2-(benzo[d][1,3]dioxol-5-ylmethoxy)phen-yl)-1H-imidazole]: the half-maximal inhibitory concentration (IC50) lay within 10 to 100 µM.

With `c1ccc(-c2c[nH]cn2)c(OCc2ccc3occc3c2)c1` [compound 1028, 4-(2-(benzofuran-5-ylmethoxy)phenyl)-1H-imidazole], the half-inhibitory concentration (IC50) lay within 10 to 100 µM.

As for `CCOC(=O)c1ccc(COc2ccccc2-c2c[nH]cn2)cc1` [compound 1029, ethyl 4-((2-(1H-imidazol-4-yl)phenoxy)methyl) benzoate], the IC50 was 10 to 100 µM.

For the origin of these results see US8722720B2, “Imidazole derivatives as IDO inhibitors” (NewLink Genetics Corporation, priority 2010, dated 2014).
